Results on 54 compounds are retold here after ChEMBL document CHEMBL1153569, “Development of QSAR models for predicting hepatocarcinogenic toxicity of chemicals” (Eur J Med Chem, 2009).

Molecules are shown by their SMILES.

For this series, the species on record is Mus musculus. The experiment in a line: Hepatotoxicity in mouse assessed as carcinogenic potency. Particulars: in vivo.
Take `COc1ccc([N+](=O)[O-])cc1N`: the pTD50 was found to be 1.93.

As to `S=C1NCCN1` [ETHYLENE THIOUREA], the pTD50 is 3.341.

Regarding `Cc1ccc(N)cc1N`, the pTD50 is on record as 3.66.

As to `COc1ccc(C)cc1N`, the pTD50 is 2.639.

`O=[N+]([O-])c1ccc2c3c(cccc13)CC2`: the pTD50 is on record as 3.638.

For the compound `Nc1ccc(Cl)cc1N`, the pTD50 was found to be 1.73.

Take `Cc1cc(C)c(N)cc1C`: the pTD50 amounted to 4.344.

Turning to `ClC(Cl)C(Cl)Cl` [1,1,2,2-TETRACHLOROETHANE], the pTD50 worked out at 3.63.

With `CCc1ccc(C(c2ccc(CC)cc2)C(Cl)Cl)cc1`, the pTD50 is recorded as 1.988.

As to `O=C(O)c1cc(/N=N/c2ccc(S(=O)(=O)Nc3ccccn3)cc2)ccc1O` [SULFASALAZINE], the pTD50 worked out at 1.866.

With `C1COCCO1` [DIOXANE], the pTD50 is reported as 1.883.

Consider `Cc1ccc([N+](=O)[O-])cc1N`, for which the pTD50 stood at 2.74.

Consider `O=NN(O)c1ccccc1` [CUPFERRON], for which the pTD50 was 2.439.

As to `Nc1ccccc1C(=O)OC/C=C/c1ccccc1` [CINNAMYL ANTHRANILATE], the pTD50 worked out at 1.529.

Regarding `Nc1cccc2c(N)cccc12`, the pTD50 was determined as 3.14.

Consider `CN(C)c1ccc(C(=O)c2ccc(N(C)C)cc2)cc1` [MICHLER'S KETONE], for which the pTD50 turned out to be 3.383.

As for `Nc1ccc(Cl)c(N)c1`, the pTD50 amounted to 1.9.

Consider `ClC=C(Cl)Cl` [TRICHLOROETHYLENE], for which the pTD50 came to 2.16.

Consider `ClC(Cl)Cl` [CHLOROFORM], for which the pTD50 turned out to be 3.361.

For the compound `CCCN(CCC)c1c([N+](=O)[O-])cc(C(F)(F)F)cc1[N+](=O)[O-]` [TRIFLURALIN], the pTD50 was determined as 2.96.

Regarding `O=C1NC(=O)C(c2ccccc2)(c2ccccc2)N1` [PHENYTOIN], the pTD50 turned out to be 3.18.

Turning to `Nc1ccc(Oc2ccc(N)cc2)cc1`, the pTD50 is listed as 2.9.

`CC(Cl)(Cl)Cl` [TRICHLOROETHANE]: the pTD50 was 3.38.

Turning to `Nc1c(Br)cc(Br)c2c1C(=O)c1ccccc1C2=O` [1-AMINO-2,4-DIBROMOANTHRA-QUINONE], the pTD50 stood at 2.313.

Turning to `Nc1ccc2c(c1)C(=O)c1ccccc1C2=O`, the pTD50 worked out at 2.185.

For the compound `ClC(Cl)C(Cl)(Cl)Cl` [PENTACHLOROETHANE], the pTD50 amounted to 3.39.

Consider `O=C1C2(Cl)C3(Cl)C4(Cl)C(Cl)(Cl)C5(Cl)C3(Cl)C1(Cl)C5(Cl)C24Cl` (centres undefined) [KEPONE], for which the pTD50 is listed as 5.662.

On to `FC(F)=C(F)F` [TETRAFLUOROETHYLENE], for which the pTD50 worked out at 2.907.

In the case of `Cc1ccc(Cl)cc1N`, the pTD50 is reported as 2.77.

On to `C=CC=C` [BUTADIENE], for which the pTD50 was 3.091.

For the compound `ClC(Cl)=C(Cl)Cl` [TETRACHLOROETHYLENE], the pTD50 came to 3.1.

For `O=[N+]([O-])c1ccc2[nH]cnc2c1`, the pTD50 was determined as 2.458.

In the case of `Clc1cc2c(cc1Cl)Oc1cc(Cl)c(Cl)cc1O2` [2,3,7,8-TETRACHLORODIBENZO-P-DIOXIN], the pTD50 was determined as 8.867.

As for `O=[N+]([O-])c1ccc(Oc2ccc(Cl)cc2Cl)cc1` [NITROFEN], the pTD50 is 3.203.

On to `ClC(Cl)=C(c1ccc(Cl)cc1)c1ccc(Cl)cc1` [DICHLORODIPHENYLDICHLOROETHYLENE], for which the pTD50 was determined as 4.492.

Consider `Nc1ccc(Sc2ccc(N)cc2)cc1` [4,4'-THIODIANILINE], for which the pTD50 was 3.809.

As to `C=CC(=C)Cl` [CHLOROPRENE], the pTD50 is recorded as 3.689.

For the compound `ClC(Cl)(Cl)C(Cl)(Cl)Cl` [HEXACHLOROETHANE], the pTD50 worked out at 2.683.

With `Cc1noc(NS(=O)(=O)c2ccc(N)cc2)c1C` [SULFISOXAZOLE], the pTD50 was determined as 2.004.

In the case of `ClCC(Cl)CCl` [1,2,3-TRICHLOROPROPANE], the pTD50 is on record as 4.041.

Turning to `C1CCOC1` [TETRAHYDROFURAN], the pTD50 stood at 1.233.

Consider `CNc1ccc(N(CCO)CCO)cc1[N+](=O)[O-]` [HC BLUE NO. 1], for which the pTD50 is 2.953.

For `ClC(Cl)Br` [BROMODICHLOROMETHANE], the pTD50 was 3.056.

For the compound `CCOC(=O)C(O)(c1ccc(Cl)cc1)c1ccc(Cl)cc1` [CHLOROBENZILATE], the pTD50 is 2.862.

As for `ClCC(Cl)(Cl)Cl`, the pTD50 is listed as 2.419.

For the compound `Clc1ccc(Cl)cc1` [1,4-DICHLOROBENZENE], the pTD50 amounted to 2.328.

Take `NC(=S)NNC(N)=S`: the pTD50 is 1.423.

For the compound `Nc1cc(Cl)cc(C(=O)O)c1Cl` [CHLORAMBEN], the pTD50 came to 1.607.

For `Nc1cc(Cl)c(N)c(Cl)c1`, the pTD50 turned out to be 1.941.

On to `ClCCl` [METHYLENE CHLORIDE], for which the pTD50 is listed as 1.581.

As to `CCCl` [ETHYL CHLORIDE], the pTD50 is given as 0.93.

Take `C=C(C)[C@H]1CC=C(C)CC1` [D-LIMONENE]: the pTD50 worked out at 1.113.

In the case of `c1ccc(NNc2ccccc2)cc1` [HYDRAZOBENZENE], the pTD50 was 3.793.

Turning to `C=C(Cl)CSC(=S)N(CC)CC` [SULFALLATE], the pTD50 was 3.32.
